The numbers were not newly measured in patent publication US11318114B2, “Water dispersible mini-tablets comprising Enalapril for treatment of hypertension in a pediatric population and method of preparation thereof” (PHARMATHEN S.A., priority 2014, dated 2022), which cites them from elsewhere.

In brackets after ≈: the same amount, converted by molar mass. Counter-ions that a name gives are not always drawn. Like-named read-outs stand apart in the source and are kept apart here.

Turning to `CCOC(=O)[C@H](CCc1ccccc1)N[C@@H](C)C(=O)N1CCC[C@H]1C(=O)O` [Enalapril maleate], the Solubility entry (alcohol) is given as “soluble”; the Solubility entry (dimethylformamide) is “freely soluble”; the Solubility entry (methanol) was “freely soluble”; the Solubility entry (nonpolar organic solvents) is listed as “practically insoluble”; the Solubility entry (semi polar organic solvents) was “slightly soluble”; the Solubility result (water) is “sparingly soluble”.
Consider `CCOC(=O)[C@H](CCc1ccccc1)N[C@@H](C)C(=O)N1CCC[C@H]1C(=O)O` [Enalapril, (2S)-1-{[92S0-1-ethoxy-1-oxo-4phenylbutan-2-yl]amino}pyrrolidine-2carboxylic acid], for which, for the setting “water”, the Solubility in water was 25 mg/mL (≈ 66.4 mM).
